Experimental data: patent publication US7863438B2 (Yamasa Corporation, priority 2005, dated 2011)
Where a name gives a salt, the structure may show the parent alone. Read-outs that look alike come from different tables or passages of the source.

Legend:
[1] = Ambient-temperature stability of PAPS lithium salt in aqueous solution or in the form of powder (HPLC determination of PAPS)
Experimental: ODS-[…] column (product of YMC) • Eluent: 50 mM Aqueous potassium dihydrogenphosphate solution • Flow rate: 0.6 mL/minute • Detection: Absorbance (A) at 270 nm • Temperature: 20° C. The present invention will next be specifically described in detail with reference to Referential Example and Example. However, it will be understood that the present invention is not limited to the Example. Quantitative determination of PAPS was performed under the aforementioned HPLC conditions. Ambient-temperature stability of a PAPS lithium salt (product of Calbiochem) was evaluated in an aqueous solution or in the form of powder as follows. […] As used herein, “percent undecomposed” or “percentage of undecomposed PAPS” is the ratio of the remaining amount of PAPS to the initial amount thereof.

[2] = powder 10 mg, desiccator (relative humidity: 10%), ambient temperature (23±2° C.), seven days

## Nc1ncnc2c1ncn2[C@@H]1O[C@H](COP(=O)(O)OS(=O)(=O)O)[C@@H](OP(=O)(O)O)[C@H]1O [Triethylamine salt, 3′-phosphoadenosine 5′-phosphosulfate]
[2]
  Undecomposed PAPS (%): 100%

## Nc1ncnc2c1ncn2[C@@H]1O[C@H](COP(=O)(O)OS(=O)(=O)O)[C@@H](OP(=O)(O)O)[C@H]1O [Diethylamine salt, 3′-phosphoadenosine 5′-phosphosulfate]
[2]
  Undecomposed PAPS (%): 96%

## Nc1ncnc2c1ncn2[C@@H]1O[C@H](COP(=O)(O)OS(=O)(=O)O)[C@@H](OP(=O)(O)O)[C@H]1O [Potassium salt, 3′-phosphoadenosine 5′-phosphosulfate]
[2]
  Undecomposed PAPS (%): 22%

## Nc1ncnc2c1ncn2[C@@H]1O[C@H](COP(=O)(O)OS(=O)(=O)O)[C@@H](OP(=O)(O)O)[C@H]1O [L-Arginine salt, 3′-phosphoadenosine 5′-phosphosulfate]
other
  Undecomposed PAPS (%): 57%

## Nc1ncnc2c1ncn2[C@@H]1O[C@H](COP(=O)(O)OS(=O)(=O)O)[C@@H](OP(=O)(O)O)[C@H]1O [Sodium salt, 3′-phosphoadenosine 5′-phosphosulfate]
[2]
  Undecomposed PAPS (%): 64%

## Nc1ncnc2c1ncn2[C@@H]1O[C@H](COP(=O)(O)OS(=O)(=O)O)[C@@H](OP(=O)(O)O)[C@H]1O [Imidazole salt, 3′-phosphoadenosine 5′-phosphosulfate]
[2]
  Undecomposed PAPS (%): 2.9%

## Nc1ncnc2c1ncn2[C@@H]1O[C@H](COP(=O)(O)OS(=O)(=O)O)[C@@H](OP(=O)(O)O)[C@H]1O [Ethanolamine salt, 3′-phosphoadenosine 5′-phosphosulfate]
[2]
  Undecomposed PAPS (%): 13%

## Nc1ncnc2c1ncn2[C@@H]1O[C@H](COP(=O)(O)OS(=O)(=O)O)[C@@H](OP(=O)(O)O)[C@H]1O [L-Histidine salt, 3′-phosphoadenosine 5′-phosphosulfate]
[2]
  Undecomposed PAPS (%): 98%

## Nc1ncnc2c1ncn2[C@@H]1O[C@H](COP(=O)(O)OS(=O)(=O)O)[C@@H](OP(=O)(O)O)[C@H]1O [Putrescine salt, 3′-phosphoadenosine 5′-phosphosulfate]
[2]
  Undecomposed PAPS (%): 80%

## Nc1ncnc2c1ncn2[C@@H]1O[C@H](COP(=O)(O)OS(=O)(=O)O)[C@@H](OP(=O)(O)O)[C@H]1O [L-Lysine salt, 3′-phosphoadenosine 5′-phosphosulfate]
other
  Undecomposed PAPS (%): 27%

## Nc1ncnc2c1ncn2[C@@H]1O[C@H](COP(=O)(O)OS(=O)(=O)O)[C@@H](OP(=O)(O)O)[C@H]1O [Piperidine salt, 3′-phosphoadenosine 5′-phosphosulfate]
other
  Undecomposed PAPS (%): 92%

## Nc1ncnc2c1ncn2[C@@H]1O[C@H](COP(=O)(O)OS(=O)(=O)O)[C@@H](OP(=O)(O)O)[C@H]1O [Lithium salt, 3′-phosphoadenosine 5′-phosphosulfate]
[1]; aqueous solution 10 mg/mL, standing still at 4° C. for seven days
  Undecomposed of PAPS (%): >99%
[1]; aqueous solution 10 mg/mL, standing still at 23° C. for seven days
  Undecomposed of PAPS (%): 96%
[1]; aqueous solution, seven days
  stability in aqueous solution (in words): relatively stable
[1]; powder (10 mg), standing still at 4° C. for seven days
  Undecomposed of PAPS (%): 89%
[1]; powder (10 mg), standing still at 23° C. for seven days
  Undecomposed of PAPS (%): 65%
[1]; powder, ambient temperature, seven days
  decomposed (%): 35%
[1]; powder, seven days
  stability in the form of powder (in words): very unstable
[2]
  Undecomposed PAPS (%): 65%

## Nc1ncnc2c1ncn2[C@@H]1O[C@H](COP(=O)(O)OS(=O)(=O)O)[C@@H](OP(=O)(O)O)[C@H]1O [Ammonium salt, 3′-phosphoadenosine 5′-phosphosulfate]
[2]
  Undecomposed PAPS (%): 4.1%

## Nc1ncnc2c1ncn2[C@@H]1O[C@H](COP(=O)(O)OS(=O)(=O)O)[C@@H](OP(=O)(O)O)[C@H]1O [Polyethyleneimine salt, 3′-phosphoadenosine 5′-phosphosulfate]
[2]
  Undecomposed PAPS (%): 94%

## Nc1ncnc2c1ncn2[C@@H]1O[C@H](COP(=O)(O)OS(=O)(=O)O)[C@@H](OP(=O)(O)O)[C@H]1O [Trimethylamine salt, 3′-phosphoadenosine 5′-phosphosulfate]
other
  Undecomposed PAPS (%): 89%

## Nc1ncnc2c1ncn2[C@@H]1O[C@H](COP(=O)(O)OS(=O)(=O)O)[C@@H](OP(=O)(O)O)[C@H]1O [Ethylamine salt, 3′-phosphoadenosine 5′-phosphosulfate]
other
  Undecomposed PAPS (%): 48%
